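Interpolation was linear, between the two tested concentrations surrounding the appropriate level; five concentrations were tested over 48 hours in 96-well plates. TGI marks complete inhibition of growth.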
How the values were obtained:
Experiment in all cases: growth of human tumour cells (NCI), 48 h
MALME-3M melanoma = test system: MALME-3M melanoma
SK-MEL-28 melanoma = test system: SK-MEL-28 melanoma
NCI-H226 lung = test system: NCI-H226 lung
SK-MEL-5 melanoma = test system: SK-MEL-5 melanoma
OVCAR-3 ovarian = test system: OVCAR-3 ovarian
SK-MEL-2 melanoma = test system: SK-MEL-2 melanoma
RXF 393 renal = test system: RXF 393 renal
OVCAR-8 ovarian = test system: OVCAR-8 ovarian
UACC-62 melanoma = test system: UACC-62 melanoma
U251 CNS = test system: U251 CNS
LXFL 529 NSCLC = test system: LXFL 529 NSCLC
SF-539 CNS = test system: SF-539 CNS
UO-31 renal = test system: UO-31 renal
ACHN renal = test system: ACHN renal
SNB-75 CNS = test system: SNB-75 CNS
HOP-92 NSCLC = test system: HOP-92 NSCLC
HOP-62 NSCLC = test system: HOP-62 NSCLC
CCRF-CEM leukemia = test system: CCRF-CEM leukemia
HCC-2998 colon = test system: HCC-2998 colon
HT29 colon = test system: HT29 colon
NCI-H23 lung = test system: NCI-H23 lung
COLO 205 colon = test system: COLO 205 colon
RPMI-8226 leukemia = test system: RPMI-8226 leukemia
UACC-257 melanoma = test system: UACC-257 melanoma
DLD-1 colon = test system: DLD-1 colon
SK-OV-3 ovarian = test system: SK-OV-3 ovarian
HCT-116 colon = test system: HCT-116 colon
SF-268 CNS = test system: SF-268 CNS
SNB-19 CNS = test system: SNB-19 CNS
TK-10 renal = test system: TK-10 renal
DMS 114 small cell lung = test system: DMS 114 small cell lung
LOX IMVI melanoma = test system: LOX IMVI melanoma
KM20L2 colon = test system: KM20L2 colon
MOLT-4 leukemia = test system: MOLT-4 leukemia
A549 NSCLC = test system: A549 NSCLC
SW-620 colon = test system: SW-620 colon
EKVX NSCLC = test system: EKVX NSCLC
HCT-15 colon = test system: HCT-15 colon
786-0 renal = test system: 786-0 renal
OVCAR-4 ovarian = test system: OVCAR-4 ovarian
DMS 273 small cell lung = test system: DMS 273 small cell lung
XF 498 CNS = test system: XF 498 CNS
K-562 leukemia = test system: K-562 leukemia
M14 melanoma = test system: M14 melanoma
SNB-78 CNS = test system: SNB-78 CNS
OVCAR-5 ovarian = test system: OVCAR-5 ovarian
IGROV1 ovarian = test system: IGROV1 ovarian
A498 renal = test system: A498 renal
NCI-H522 lung = test system: NCI-H522 lung
KM12 colon = test system: KM12 colon
SF-295 CNS = test system: SF-295 CNS
NCI-H460 lung = test system: NCI-H460 lung
CAKI-1 renal = test system: CAKI-1 renal
SN12C renal = test system: SN12C renal
HL-60(TB) leukemia = test system: HL-60(TB) leukemia
RXF-631 renal = test system: RXF-631 renal
M19-MEL melanoma = test system: M19-MEL melanoma
SR leukemia = test system: SR leukemia
HOP-18 NSCLC = test system: HOP-18 NSCLC

`Cc1nnc2c3nnc(C)n3c3ccccc3n12` gave a TGI (MALME-3M melanoma) of over 100 µM, a TGI (SK-MEL-28 melanoma) of over 100 µM and a TGI (NCI-H226 lung) of over 100 µM. The TGI (SK-MEL-5 melanoma) was over 100 µM, the TGI (OVCAR-3 ovarian) was over 100 µM and the TGI (SK-MEL-2 melanoma) was over 100 µM. It also gave a TGI (RXF 393 renal) of over 100 µM, a TGI (OVCAR-8 ovarian) of over 100 µM and a TGI (UACC-62 melanoma) of over 100 µM. It also gave a TGI (U251 CNS) of over 100 µM, a TGI (LXFL 529 NSCLC) of over 100 µM and a TGI (SF-539 CNS) of over 100 µM. The TGI (UO-31 renal) was over 100 µM, the TGI (ACHN renal) was over 100 µM and the TGI (SNB-75 CNS) was over 100 µM. For the same compound, the TGI (HOP-92 NSCLC) was over 100 µM, the TGI (HOP-62 NSCLC) was over 100 µM and the TGI (CCRF-CEM leukemia) was over 100 µM. The TGI (HCC-2998 colon) was over 100 µM, the TGI (HT29 colon) was over 100 µM and the TGI (NCI-H23 lung) was over 100 µM. The TGI (COLO 205 colon) was over 100 µM, the TGI (RPMI-8226 leukemia) was over 100 µM and the TGI (UACC-257 melanoma) was over 100 µM. For the same compound, the TGI (DLD-1 colon) was over 100 µM, the TGI (SK-OV-3 ovarian) was over 100 µM and the TGI (HCT-116 colon) was over 100 µM. The TGI (SF-268 CNS) was over 100 µM, the TGI (SNB-19 CNS) was over 100 µM and the TGI (TK-10 renal) was over 100 µM. The TGI (DMS 114 small cell lung) was over 100 µM, the TGI (LOX IMVI melanoma) was over 100 µM and the TGI (KM20L2 colon) was over 100 µM. It also gave a TGI (MOLT-4 leukemia) of over 100 µM, a TGI (A549 NSCLC) of over 100 µM and a TGI (SW-620 colon) of over 100 µM. For the same compound, the TGI (EKVX NSCLC) was over 100 µM, the TGI (HCT-15 colon) was over 100 µM and the TGI (786-0 renal) was over 100 µM. It also gave a TGI (OVCAR-4 ovarian) of over 100 µM, a TGI (DMS 273 small cell lung) of over 100 µM and a TGI (XF 498 CNS) of over 100 µM. The TGI (K-562 leukemia) was over 100 µM, the TGI (M14 melanoma) was over 100 µM and the TGI (SNB-78 CNS) was over 100 µM. For the same compound, the TGI (OVCAR-5 ovarian) was over 100 µM, the TGI (IGROV1 ovarian) was over 100 µM and the TGI (A498 renal) was over 100 µM. It also gave a TGI (NCI-H522 lung) of over 100 µM, a TGI (KM12 colon) of over 100 µM and a TGI (SF-295 CNS) of over 100 µM. The TGI (NCI-H460 lung) was over 100 µM, the TGI (CAKI-1 renal) was over 100 µM and the TGI (SN12C renal) was over 100 µM.
Compound `O=C(CCC(=O)Nc1ccc(Cl)c(Cl)c1)CC(=O)c1ccc(F)cc1` has a TGI (MALME-3M melanoma) of over 100 µM, a TGI (SK-MEL-28 melanoma) of over 100 µM and a TGI (NCI-H226 lung) of over 100 µM. The TGI (SK-MEL-5 melanoma) was over 100 µM, the TGI (OVCAR-3 ovarian) was over 100 µM and the TGI (RXF 393 renal) was over 100 µM. The TGI (OVCAR-8 ovarian) was over 100 µM, the TGI (HL-60(TB) leukemia) was over 100 µM and the TGI (UACC-62 melanoma) was over 100 µM. For the same compound, the TGI (U251 CNS) was over 100 µM, the TGI (LXFL 529 NSCLC) was over 100 µM and the TGI (SF-539 CNS) was over 100 µM. It also gave a TGI (RXF-631 renal) of over 100 µM, a TGI (UO-31 renal) of over 100 µM and a TGI (ACHN renal) of over 100 µM. It also gave a TGI (HOP-92 NSCLC) of over 100 µM, a TGI (HOP-62 NSCLC) of over 100 µM and a TGI (CCRF-CEM leukemia) of over 100 µM. It also gave a TGI (HCC-2998 colon) of over 100 µM, a TGI (HT29 colon) of over 100 µM and a TGI (NCI-H23 lung) of over 100 µM. For the same compound, the TGI (COLO 205 colon) was over 100 µM, the TGI (UACC-257 melanoma) was over 100 µM and the TGI (DLD-1 colon) was over 100 µM. For the same compound, the TGI (SK-OV-3 ovarian) was over 100 µM, the TGI (HCT-116 colon) was over 100 µM and the TGI (SF-268 CNS) was over 100 µM. For the same compound, the TGI (SNB-19 CNS) was over 100 µM, the TGI (DMS 114 small cell lung) was over 100 µM and the TGI (LOX IMVI melanoma) was over 100 µM. The TGI (KM20L2 colon) was over 100 µM, the TGI (MOLT-4 leukemia) was over 100 µM and the TGI (A549 NSCLC) was over 100 µM. The TGI (SW-620 colon) was over 100 µM, the TGI (EKVX NSCLC) was over 100 µM and the TGI (786-0 renal) was over 100 µM. For the same compound, the TGI (OVCAR-4 ovarian) was over 100 µM, the TGI (DMS 273 small cell lung) was over 100 µM and the TGI (K-562 leukemia) was over 100 µM. It also gave a TGI (M14 melanoma) of over 100 µM, a TGI (M19-MEL melanoma) of over 100 µM and a TGI (SR leukemia) of over 100 µM. The TGI (HOP-18 NSCLC) was over 100 µM, the TGI (SNB-78 CNS) was over 100 µM and the TGI (OVCAR-5 ovarian) was over 100 µM. The TGI (IGROV1 ovarian) was over 100 µM, the TGI (KM12 colon) was over 100 µM and the TGI (SF-295 CNS) was over 100 µM. For the same compound, the TGI (NCI-H460 lung) was over 100 µM, the TGI (CAKI-1 renal) was over 100 µM and the TGI (SN12C renal) was over 100 µM.
`O=C(/C=C/c1ccco1)c1ccc(NCc2nc3ccccc3[nH]2)cc1` was tested, and the TGI (MALME-3M melanoma) was 33.2 µM, the TGI (SK-MEL-28 melanoma) was 33.8 µM and the TGI (NCI-H226 lung) was 13.8 µM. The TGI (SK-MEL-5 melanoma) was 28.6 µM, the TGI (OVCAR-3 ovarian) was 31.1 µM and the TGI (SK-MEL-2 melanoma) was 34.9 µM. It also gave a TGI (OVCAR-8 ovarian) of 47.8 µM, a TGI (HL-60(TB) leukemia) of 30.6 µM and a TGI (UACC-62 melanoma) of 30.2 µM. The TGI (U251 CNS) was 23.8 µM, the TGI (LXFL 529 NSCLC) was 28.5 µM and the TGI (SF-539 CNS) was 33.2 µM. For the same compound, the TGI (UO-31 renal) was 27.3 µM, the TGI (ACHN renal) was 38.4 µM and the TGI (SNB-75 CNS) was 31.1 µM. For the same compound, the TGI (HOP-92 NSCLC) was 30.6 µM, the TGI (HOP-62 NSCLC) was 35.6 µM and the TGI (CCRF-CEM leukemia) was 33.5 µM. It also gave a TGI (HCC-2998 colon) of 27.7 µM, a TGI (HT29 colon) of 38.3 µM and a TGI (NCI-H23 lung) of 27.5 µM. For the same compound, the TGI (COLO 205 colon) was 26.7 µM, the TGI (UACC-257 melanoma) was 23.2 µM and the TGI (DLD-1 colon) was 32.4 µM. The TGI (SK-OV-3 ovarian) was 43.3 µM, the TGI (SF-268 CNS) was 46.4 µM and the TGI (SNB-19 CNS) was 30.6 µM. The TGI (TK-10 renal) was 39.1 µM, the TGI (DMS 114 small cell lung) was 26 µM and the TGI (LOX IMVI melanoma) was 29.8 µM. The TGI (KM20L2 colon) was 35.1 µM, the TGI (MOLT-4 leukemia) was 31.9 µM and the TGI (SW-620 colon) was 34.3 µM. The TGI (EKVX NSCLC) was 29.9 µM, the TGI (HCT-15 colon) was 30.3 µM and the TGI (786-0 renal) was 32.5 µM. The TGI (OVCAR-4 ovarian) was 56.6 µM, the TGI (DMS 273 small cell lung) was 35.8 µM and the TGI (K-562 leukemia) was 40.9 µM. The TGI (M14 melanoma) was 30.9 µM, the TGI (M19-MEL melanoma) was 29.4 µM and the TGI (SR leukemia) was 37.7 µM. It also gave a TGI (HOP-18 NSCLC) of 44.5 µM, a TGI (SNB-78 CNS) of 58.4 µM and a TGI (OVCAR-5 ovarian) of 31.5 µM. For the same compound, the TGI (IGROV1 ovarian) was 34.1 µM, the TGI (A498 renal) was 27.5 µM and the TGI (NCI-H522 lung) was 21.4 µM. It also gave a TGI (KM12 colon) of 22.6 µM, a TGI (SF-295 CNS) of 31.1 µM and a TGI (NCI-H460 lung) of over 100 µM. It also gave a TGI (CAKI-1 renal) of 49.9 µM and a TGI (SN12C renal) of 32 µM.
